Columns and labels:
Experiment in all cases: TR FRET
Details in all cases: compound 0.01 µM
MLTK (human) = MLTK (human) (UniProt Q9NYL2)
MAPK14 (human) = MAPK14 (human) (UniProt Q16539)
[1] = system: KIT (human), P10721 [L576P]
DDR2 (human) = DDR2 (human) (UniProt Q16832)
CHUK (human) = CHUK (human) (UniProt O15111)
[2] = system: KIT (human), P10721 [V559D]
EPHA4 (human) = EPHA4 (human) (UniProt P54764)
MUSK (human) = MUSK (human) (UniProt O15146)
CPK1 (P.falciparum) = system: CPK1 (P.falciparum)
EPHA8 (human) = EPHA8 (human) (UniProt P29322)
LCK (human) = LCK (human) (UniProt P06239)
KIT (human) = KIT (human) (UniProt P10721)
MAP2K5 (human) = MAP2K5 (human) (UniProt Q13163)
IKBKB (human) = IKBKB (human) (UniProt O14920)
[3] = system: KIT (human), P10721 [V559D/T670I]
HCK (human) = HCK (human) (UniProt P08631)
SRC (human) = SRC (human) (UniProt P12931)
RET (human) = RET (human) (UniProt P07949)
MAP3K3 (human) = MAP3K3 (human) (UniProt Q99759)
MAP3K7 (human) = MAP3K7 (human) (UniProt O43318)
[4] = system: RET (human), P07949 [V804M]
NTRK3 (human) = NTRK3 (human) (UniProt Q16288)
EPHA3 (human) = EPHA3 (human) (UniProt P29320)
LYN (human) = LYN (human) (UniProt P07948)
STK10 (human) = STK10 (human) (UniProt O94804)
DDR1 (human) = DDR1 (human) (UniProt Q08345)
[5] = system: RET (human), P07949 [M918T]
FGFR1 (human) = FGFR1 (human) (UniProt P11362)
PDGFRB (human) = PDGFRB (human) (UniProt P09619)
[6] = system: FLT3 (human), P36888 [D835H]
BLK (human) = BLK (human) (UniProt P51451)
NTRK1 (human) = NTRK1 (human) (UniProt P04629)
YES1 (human) = YES1 (human) (UniProt P07947)
BRAF (human) = BRAF (human) (UniProt P15056)
TIE1 (human) = TIE1 (human) (UniProt P35590)
FGR (human) = FGR (human) (UniProt P09769)
TNIK (human) = TNIK (human) (UniProt Q9UKE5)
NTRK2 (human) = NTRK2 (human) (UniProt Q16620)
ANKK1 (human) = ANKK1 (human) (UniProt Q8NFD2)
CSF1R (human) = CSF1R (human) (UniProt P07333)
PDGFRA (human) = PDGFRA (human) (UniProt P16234)
TNK1 (human) = TNK1 (human) (UniProt Q13470)
BMX (human) = BMX (human) (UniProt P51813)
ULK1 (human) = ULK1 (human) (UniProt O75385)
TAOK3 (human) = TAOK3 (human) (UniProt Q9H2K8)
[7] = system: FLT3 (human), P36888 [K663Q]
CSK (human) = CSK (human) (UniProt P41240)
MAP4K1 (human) = MAP4K1 (human) (UniProt Q92918)
[8] = system: BRAF (human), P15056 [V600E]
MAP4K2 (human) = MAP4K2 (human) (UniProt Q12851)
[9] = system: EIF2AK4 KD2 (human), Q9P2K8 [S808G]
MAP3K2 (human) = MAP3K2 (human) (UniProt Q9Y2U5)
[10] = system: FLT3 (human), P36888 [D835Y]
SGK3 (human) = SGK3 (human) (UniProt Q96BR1)
[11] = system: FLT3 (human), P36888 [R834Q]
FLT3 (human) = FLT3 (human) (UniProt P36888)
[12] = target: JAK3 JH1 catalytic (human) (UniProt P52333)
[13] = system: FLT3 (human), P36888 [N841I]
TEK (human) = TEK (human) (UniProt Q02763)

Chain of TIE1 (human) (P35590 whole entry, looked up): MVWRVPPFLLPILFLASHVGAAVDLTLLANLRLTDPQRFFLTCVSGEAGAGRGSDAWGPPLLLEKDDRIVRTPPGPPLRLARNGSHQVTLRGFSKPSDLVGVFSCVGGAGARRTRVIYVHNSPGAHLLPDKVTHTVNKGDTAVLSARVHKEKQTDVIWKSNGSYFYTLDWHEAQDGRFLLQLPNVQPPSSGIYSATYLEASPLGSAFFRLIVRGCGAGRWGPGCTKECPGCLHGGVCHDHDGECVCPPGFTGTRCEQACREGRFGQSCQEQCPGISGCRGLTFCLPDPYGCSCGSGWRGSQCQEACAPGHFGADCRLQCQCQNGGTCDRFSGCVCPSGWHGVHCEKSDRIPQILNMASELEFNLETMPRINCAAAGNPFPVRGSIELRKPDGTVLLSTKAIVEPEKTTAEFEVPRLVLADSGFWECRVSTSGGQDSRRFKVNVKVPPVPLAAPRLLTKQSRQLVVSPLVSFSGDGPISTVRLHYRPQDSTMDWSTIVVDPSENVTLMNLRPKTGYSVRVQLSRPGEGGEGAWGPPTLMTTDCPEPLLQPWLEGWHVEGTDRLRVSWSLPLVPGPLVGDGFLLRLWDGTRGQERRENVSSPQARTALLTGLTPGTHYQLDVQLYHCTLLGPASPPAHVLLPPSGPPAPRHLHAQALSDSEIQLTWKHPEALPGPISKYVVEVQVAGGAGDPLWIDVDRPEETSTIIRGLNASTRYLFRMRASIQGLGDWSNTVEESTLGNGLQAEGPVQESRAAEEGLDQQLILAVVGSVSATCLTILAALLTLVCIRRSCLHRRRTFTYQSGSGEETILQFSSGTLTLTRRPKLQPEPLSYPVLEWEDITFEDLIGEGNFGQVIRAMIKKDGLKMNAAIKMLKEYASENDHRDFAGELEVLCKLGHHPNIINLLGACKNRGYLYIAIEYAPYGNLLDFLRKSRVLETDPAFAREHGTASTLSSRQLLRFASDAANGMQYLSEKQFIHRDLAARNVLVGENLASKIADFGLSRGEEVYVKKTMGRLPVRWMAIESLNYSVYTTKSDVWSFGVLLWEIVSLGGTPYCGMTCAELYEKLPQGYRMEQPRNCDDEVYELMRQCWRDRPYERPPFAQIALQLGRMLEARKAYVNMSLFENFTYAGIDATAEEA
Chain of STK10 (human) (O94804 whole entry, looked up): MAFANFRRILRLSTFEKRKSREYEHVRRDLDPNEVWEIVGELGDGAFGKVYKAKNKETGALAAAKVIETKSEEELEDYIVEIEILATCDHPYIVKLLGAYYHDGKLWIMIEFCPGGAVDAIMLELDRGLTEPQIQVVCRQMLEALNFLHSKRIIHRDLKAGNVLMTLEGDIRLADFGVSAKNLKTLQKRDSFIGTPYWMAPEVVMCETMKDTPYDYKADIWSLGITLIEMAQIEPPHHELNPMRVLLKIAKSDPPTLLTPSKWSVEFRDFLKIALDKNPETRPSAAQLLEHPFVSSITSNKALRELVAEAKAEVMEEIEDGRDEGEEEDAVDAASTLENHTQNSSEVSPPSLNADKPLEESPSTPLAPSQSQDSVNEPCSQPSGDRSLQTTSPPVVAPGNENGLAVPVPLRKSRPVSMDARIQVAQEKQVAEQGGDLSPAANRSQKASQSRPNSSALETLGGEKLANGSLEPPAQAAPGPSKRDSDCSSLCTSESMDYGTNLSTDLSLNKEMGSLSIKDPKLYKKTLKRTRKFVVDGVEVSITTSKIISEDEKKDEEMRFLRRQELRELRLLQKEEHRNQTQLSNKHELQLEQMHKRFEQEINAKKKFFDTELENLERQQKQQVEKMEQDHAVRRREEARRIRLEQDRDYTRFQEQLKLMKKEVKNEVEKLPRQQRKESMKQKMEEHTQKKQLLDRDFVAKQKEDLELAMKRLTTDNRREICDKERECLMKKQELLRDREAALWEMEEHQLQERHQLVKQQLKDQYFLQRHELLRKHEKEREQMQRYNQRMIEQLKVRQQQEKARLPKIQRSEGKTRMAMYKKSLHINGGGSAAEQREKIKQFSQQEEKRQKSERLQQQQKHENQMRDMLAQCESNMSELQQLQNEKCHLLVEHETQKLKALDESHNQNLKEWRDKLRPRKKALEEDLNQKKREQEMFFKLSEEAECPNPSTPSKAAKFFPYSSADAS
Chain of RET (human) (P07949 whole entry, looked up): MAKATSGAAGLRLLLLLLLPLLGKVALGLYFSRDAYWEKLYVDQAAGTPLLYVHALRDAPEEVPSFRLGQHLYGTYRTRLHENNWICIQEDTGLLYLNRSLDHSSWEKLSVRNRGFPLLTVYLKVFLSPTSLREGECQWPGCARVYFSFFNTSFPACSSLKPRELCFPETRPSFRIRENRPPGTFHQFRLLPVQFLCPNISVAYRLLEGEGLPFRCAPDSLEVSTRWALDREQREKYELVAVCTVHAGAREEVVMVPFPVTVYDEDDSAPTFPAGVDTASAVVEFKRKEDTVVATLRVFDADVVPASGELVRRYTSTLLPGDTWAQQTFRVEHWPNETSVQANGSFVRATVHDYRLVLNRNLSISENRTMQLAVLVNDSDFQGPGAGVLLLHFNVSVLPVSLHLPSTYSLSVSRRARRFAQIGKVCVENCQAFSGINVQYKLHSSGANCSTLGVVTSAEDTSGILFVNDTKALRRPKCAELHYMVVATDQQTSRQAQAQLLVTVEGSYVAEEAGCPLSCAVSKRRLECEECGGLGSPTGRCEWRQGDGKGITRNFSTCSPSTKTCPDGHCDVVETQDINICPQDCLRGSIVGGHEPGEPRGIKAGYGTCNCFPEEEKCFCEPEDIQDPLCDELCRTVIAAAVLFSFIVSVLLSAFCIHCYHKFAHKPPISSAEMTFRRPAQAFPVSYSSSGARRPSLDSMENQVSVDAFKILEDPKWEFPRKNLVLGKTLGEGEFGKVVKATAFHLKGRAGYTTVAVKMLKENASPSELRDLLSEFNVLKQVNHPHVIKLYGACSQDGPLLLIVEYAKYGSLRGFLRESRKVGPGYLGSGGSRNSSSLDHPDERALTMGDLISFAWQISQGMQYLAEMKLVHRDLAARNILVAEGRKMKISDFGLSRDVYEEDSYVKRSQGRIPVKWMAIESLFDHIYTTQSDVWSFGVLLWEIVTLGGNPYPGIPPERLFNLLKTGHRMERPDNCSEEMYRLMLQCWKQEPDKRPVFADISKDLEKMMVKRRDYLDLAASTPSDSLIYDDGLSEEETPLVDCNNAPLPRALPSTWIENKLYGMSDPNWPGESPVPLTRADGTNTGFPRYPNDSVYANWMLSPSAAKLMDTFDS
Chain of SGK3 (human) (Q96BR1 whole entry, looked up): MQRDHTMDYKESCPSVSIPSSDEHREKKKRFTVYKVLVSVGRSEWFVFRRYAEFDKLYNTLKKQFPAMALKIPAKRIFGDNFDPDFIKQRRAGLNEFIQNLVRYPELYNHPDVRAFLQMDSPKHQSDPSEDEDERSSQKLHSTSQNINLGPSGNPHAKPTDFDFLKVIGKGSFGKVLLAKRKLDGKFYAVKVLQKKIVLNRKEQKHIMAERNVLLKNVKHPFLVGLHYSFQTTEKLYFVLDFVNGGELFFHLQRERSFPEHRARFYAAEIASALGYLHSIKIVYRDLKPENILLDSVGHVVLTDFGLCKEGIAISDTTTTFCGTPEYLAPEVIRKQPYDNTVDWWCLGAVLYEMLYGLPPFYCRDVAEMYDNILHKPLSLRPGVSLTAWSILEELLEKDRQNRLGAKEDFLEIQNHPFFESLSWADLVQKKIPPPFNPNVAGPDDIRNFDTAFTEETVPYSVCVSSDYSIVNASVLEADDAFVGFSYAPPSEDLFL
Chain of BRAF (human) (P15056 whole entry, looked up): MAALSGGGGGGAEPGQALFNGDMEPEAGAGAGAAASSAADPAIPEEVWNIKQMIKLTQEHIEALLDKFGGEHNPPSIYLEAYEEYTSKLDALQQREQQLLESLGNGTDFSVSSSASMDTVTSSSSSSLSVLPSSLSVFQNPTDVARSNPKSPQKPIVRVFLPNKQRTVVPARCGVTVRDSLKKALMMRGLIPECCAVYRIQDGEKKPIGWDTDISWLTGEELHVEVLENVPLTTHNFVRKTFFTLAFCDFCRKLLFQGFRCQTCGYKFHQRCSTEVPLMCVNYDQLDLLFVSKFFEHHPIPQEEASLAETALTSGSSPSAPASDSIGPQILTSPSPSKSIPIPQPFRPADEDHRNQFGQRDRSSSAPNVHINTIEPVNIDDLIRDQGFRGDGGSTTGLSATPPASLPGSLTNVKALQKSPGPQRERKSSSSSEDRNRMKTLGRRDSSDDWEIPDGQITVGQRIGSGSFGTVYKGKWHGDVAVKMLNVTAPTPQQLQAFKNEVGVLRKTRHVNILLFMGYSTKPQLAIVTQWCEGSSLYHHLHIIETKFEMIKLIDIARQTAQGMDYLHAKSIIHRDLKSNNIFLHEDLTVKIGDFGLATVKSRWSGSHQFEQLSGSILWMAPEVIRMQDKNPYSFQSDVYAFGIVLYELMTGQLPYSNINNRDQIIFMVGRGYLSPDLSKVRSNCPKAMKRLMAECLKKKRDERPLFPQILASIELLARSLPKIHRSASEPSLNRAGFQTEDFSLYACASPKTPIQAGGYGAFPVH
Chain of MAPK14 (human) (Q16539 whole entry, looked up): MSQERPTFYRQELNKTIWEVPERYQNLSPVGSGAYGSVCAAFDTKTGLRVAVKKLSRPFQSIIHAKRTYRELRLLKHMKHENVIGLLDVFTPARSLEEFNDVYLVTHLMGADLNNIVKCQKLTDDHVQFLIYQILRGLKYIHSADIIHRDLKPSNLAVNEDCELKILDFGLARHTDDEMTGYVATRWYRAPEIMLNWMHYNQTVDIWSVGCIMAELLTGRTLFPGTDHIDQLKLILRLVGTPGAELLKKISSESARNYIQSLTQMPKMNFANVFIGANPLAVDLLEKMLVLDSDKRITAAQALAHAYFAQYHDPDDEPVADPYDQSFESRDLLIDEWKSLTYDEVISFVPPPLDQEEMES
Chain of RET (human), P07949 [M918T] (P07949 whole entry M918T, looked up): as the sequence (P07949 whole entry, looked up) above, with M918T counted along it
Chain of RET (human), P07949 [V804M] (P07949 whole entry V804M, looked up): as the sequence (P07949 whole entry, looked up) above, with V804M counted along it
Chain of BRAF (human), P15056 [V600E] (P15056 whole entry V600E, looked up): as the sequence (P15056 whole entry, looked up) above, with V600E counted along it

inhibition (MLTK (human)): 96.2%
inhibition (MAPK14 (human)): 59%
inhibition [1]: 97.8%
inhibition (DDR2 (human)): 64%
inhibition (CHUK (human)): 86%
inhibition [2]: 98.6%
inhibition (EPHA4 (human)): 52%
inhibition (MUSK (human)): 78%
inhibition (CPK1 (P.falciparum)): 79%
inhibition (EPHA8 (human)): 89%
inhibition (LCK (human)): 96.8%
inhibition (KIT (human)): 97.2%
inhibition (MAP2K5 (human)): 94.8%
inhibition (IKBKB (human)): 90%
inhibition [3]: 91.9%
inhibition (HCK (human)): 95.8%
inhibition (SRC (human)): 76%
inhibition (RET (human)): 85%
inhibition (MAP3K3 (human)): 90%
inhibition (MAP3K7 (human)): 96.2%
inhibition [4]: 65%
inhibition (NTRK3 (human)): 82%
inhibition (EPHA3 (human)): 89%
inhibition (LYN (human)): 83%
inhibition (STK10 (human)): 99.8%
inhibition (DDR1 (human)): 99.8%
inhibition [5]: 90.6%
inhibition (FGFR1 (human)): 84%
inhibition (PDGFRB (human)): 90.5%
inhibition [6]: 82%
inhibition (BLK (human)): 97.6%
inhibition (NTRK1 (human)): 100%
inhibition (YES1 (human)): 70%
inhibition (BRAF (human)): 78%
inhibition (TIE1 (human)): 82%
inhibition (FGR (human)): 81%
inhibition (TNIK (human)): 81%
inhibition (NTRK2 (human)): 86%
inhibition (ANKK1 (human)): 55%
inhibition (CSF1R (human)): 97.8%
inhibition (PDGFRA (human)): 76%
inhibition (TNK1 (human)): 83%
inhibition (BMX (human)): 51%
inhibition (ULK1 (human)): 51%
inhibition (TAOK3 (human)): 92.1%
inhibition [7]: 95%
inhibition (CSK (human)): 97.8%
inhibition (MAP4K1 (human)): 59%
inhibition [8]: 93.6%
inhibition (MAP4K2 (human)): 86%
inhibition [9]: 54%
inhibition (MAP3K2 (human)): 63%
inhibition [10]: 58%
inhibition (SGK3 (human)): 52%
inhibition [11]: 77%
inhibition (FLT3 (human)): 97.6%
inhibition [12]: 67%
inhibition [13]: 97.1%
inhibition (TEK (human)): 97.2%
Structure (SMILES): Cc1ccc(C(=O)Nc2ccc(CN3CCN(C)CC3)c(C(F)(F)F)c2)cc1C#Cc1cnc2[nH]ncc2c1

Source: the kinase profiling compilation of Christmann-Franck et al. (2016)
